Test results published in US12606520B2, “Calpain-2 inhibitor compounds and methods of treatment” (WESTERN UNIVERSITY OF HEALTH SCIENCES, priority 2020, dated 2026).

What was measured:
[1] = target: T1, recombinant human calpain-2 (hcalpain-2) (Homo sapiens, UniProt P17655); test: Inhibition of recombinant human calpain-2; type: biochemical
T1 sequence (P17655 1-700): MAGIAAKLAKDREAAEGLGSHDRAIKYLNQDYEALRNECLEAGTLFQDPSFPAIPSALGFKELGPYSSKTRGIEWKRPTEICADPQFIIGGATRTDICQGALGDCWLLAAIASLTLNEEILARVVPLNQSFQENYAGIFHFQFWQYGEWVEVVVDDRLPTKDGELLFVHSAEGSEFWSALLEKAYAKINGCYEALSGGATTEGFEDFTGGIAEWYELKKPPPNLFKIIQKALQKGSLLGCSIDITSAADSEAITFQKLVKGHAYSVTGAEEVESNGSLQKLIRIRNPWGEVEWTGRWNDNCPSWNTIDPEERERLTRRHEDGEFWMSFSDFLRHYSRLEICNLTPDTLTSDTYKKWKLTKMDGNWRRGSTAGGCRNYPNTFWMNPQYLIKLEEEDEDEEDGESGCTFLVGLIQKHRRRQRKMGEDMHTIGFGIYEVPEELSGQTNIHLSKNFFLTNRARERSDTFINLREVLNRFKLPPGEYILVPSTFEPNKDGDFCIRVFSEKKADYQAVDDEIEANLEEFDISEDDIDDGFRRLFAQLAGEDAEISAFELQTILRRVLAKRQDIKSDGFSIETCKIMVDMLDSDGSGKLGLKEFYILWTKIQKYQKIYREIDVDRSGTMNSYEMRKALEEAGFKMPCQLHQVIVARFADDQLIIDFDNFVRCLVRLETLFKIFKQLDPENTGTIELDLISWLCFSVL
T1 sequence (P04632 1-268 partner): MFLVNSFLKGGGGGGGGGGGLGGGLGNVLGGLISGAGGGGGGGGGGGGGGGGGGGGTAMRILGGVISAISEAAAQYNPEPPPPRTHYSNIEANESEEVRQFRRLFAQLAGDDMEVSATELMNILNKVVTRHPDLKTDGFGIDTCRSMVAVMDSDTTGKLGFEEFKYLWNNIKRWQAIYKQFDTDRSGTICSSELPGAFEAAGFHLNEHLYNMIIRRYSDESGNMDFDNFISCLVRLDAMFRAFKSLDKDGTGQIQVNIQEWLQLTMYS
Method: Various concentrations of NA112 in the liposomal formulation were incubated with human calpain-1 (purified from erythrocytes, ecalpain-1) or a recombinant human calpain-2 (hcalpain-2) and calpain activity assayed as in FIG. 1. IC50 were determined and transformed into Ki values (FIG. 10A, 10B). Values previously obtained with NA112 dissolved in DMSO are shown for comparison (FIG. 10B).
Cerebellar homogenates from wild-type (WT) or calpain-1 Knock-out (KO) mice were incubated with 20 μM calcium to activate calpain-1 or with 2 mM calcium to activate calpain-2, respectively, and increasing concentrations of NA184.
Like in NA112, there are 2 chiral centers in NA184. The inhibitory activity of the compounds NA184A (S-S isomer) and NA184B (S-R stereoisomer) against erythrocyte human calpain-1 (ecalpain-1) and recombinant human calpain-2 (hcalpain-2) were determined.

[2] = target: T2, calpain-2 (Mus musculus, UniProt O08529); test: Calpain-2 activity in calpain-1 KO mouse cerebellar homogenate (2 mM Ca2+), Suc-Leu-Tyr-AMC cleavage; type: biochemical; set-up: Calpain-2 activity=calpain activity under 2000 uM Ca^2+ in calpain-1 KO mice; from tissue; host or cells: calpain-1 knock-out mouse cerebellar (P2) homogenate
T2 sequence (O08529 1-700): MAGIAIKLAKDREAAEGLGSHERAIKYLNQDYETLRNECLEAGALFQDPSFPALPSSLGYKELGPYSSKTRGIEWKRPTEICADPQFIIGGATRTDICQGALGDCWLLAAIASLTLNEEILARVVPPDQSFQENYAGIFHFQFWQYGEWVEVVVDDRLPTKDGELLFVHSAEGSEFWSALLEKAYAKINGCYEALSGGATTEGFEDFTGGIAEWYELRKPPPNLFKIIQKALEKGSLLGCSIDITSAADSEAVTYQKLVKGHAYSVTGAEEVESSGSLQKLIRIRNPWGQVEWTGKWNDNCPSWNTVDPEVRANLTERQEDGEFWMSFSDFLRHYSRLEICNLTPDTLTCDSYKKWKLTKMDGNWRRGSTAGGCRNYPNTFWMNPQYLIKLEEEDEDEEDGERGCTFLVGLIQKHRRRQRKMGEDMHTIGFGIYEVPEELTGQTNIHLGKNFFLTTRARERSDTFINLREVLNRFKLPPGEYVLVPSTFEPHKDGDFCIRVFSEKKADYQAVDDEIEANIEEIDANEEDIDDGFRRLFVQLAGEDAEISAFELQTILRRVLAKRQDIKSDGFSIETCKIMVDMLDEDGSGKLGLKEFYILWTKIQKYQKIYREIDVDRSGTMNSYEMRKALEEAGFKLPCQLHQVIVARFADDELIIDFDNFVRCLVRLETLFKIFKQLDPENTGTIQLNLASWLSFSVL
T2 sequence (O88456 1-268 partner): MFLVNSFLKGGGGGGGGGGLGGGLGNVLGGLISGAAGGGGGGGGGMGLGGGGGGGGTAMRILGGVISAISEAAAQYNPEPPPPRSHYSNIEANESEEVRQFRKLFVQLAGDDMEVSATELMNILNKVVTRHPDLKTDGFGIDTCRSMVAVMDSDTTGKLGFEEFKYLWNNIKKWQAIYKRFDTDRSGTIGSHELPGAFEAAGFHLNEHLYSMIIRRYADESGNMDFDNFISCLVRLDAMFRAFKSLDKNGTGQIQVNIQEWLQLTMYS
Method: Cerebellar homogenates from wild-type (WT) or calpain-1 Knock-out (KO) mice were incubated with 20 μM calcium to activate calpain-1 or with 2 mM calcium to activate calpain-2, respectively, and increasing concentrations of NA112 (12). Calpain activity was measured by the cleavage of Succinyl-Leu-Tyr-7-amino-4-methylcoumarin (Suc-Leu-Tyr-AMC), resulting in increased fluorescence. Activity is normalized to the value measured in the presence of vehicle (DMSO).
WT or calpain-1 KO mouse cerebellar P2 homogenate (crude synaptosomal fraction) were used for measuring inhibitory activity of compounds against the mouse endogenous calpain-1/-2. Each reaction contains 100 ul of WT or calpain-1 KO mouse cerebellar P2 homogenate+0, 20 or 2000 uM Ca^2++0-10,000 nM NA184.
Calpain-2 activity=calpain activity under 2000 uM Ca^2+ in calpain-1 KO mice

| Structure (SMILES) | IC50 [1] [nM] | Ki [1] [nM] | Ratio (IC50 calpain-1/calpain-2) ([2]; mouse cerebellar P2 homogenate) | IC50 ([2]; read-out: IC50, 2000 μM Ca^2+ (calpain-1 KO), calpain-1 KO mouse cerebellar homogenate, 2 mM calcium) [nM] |
| --- | --- | --- | --- | --- |
| CCC(NC(=O)[C@H](CC(C)C)NC(=O)NCc1ccccc1)C(=O)C(=O)NCc1cccc(Cl)c1OC (stereo partly drawn) [NA184, (2S)-2-(3-benzylureido)-N-(1-((3-chloro-2-methoxybenzyl)amino)-1,2-dioxopentan-3-yl)-4-methylpentanamide] | 85 | 54 | 21 | – |
| CCC(NC(=O)[C@H](CC(C)C)NC(=O)NCc1ccccc1)C(=O)C(=O)NCc1cc(OC)cc(OC)c1 (mixture of isomers) [NA112, (2S)-2-(3-benzylureido)-N-(1-((3,5-dimethoxybenzyl)amino)-1,2-dioxopentan-3-yl)-4-methylpentanamide] | – | – | – | 106 |
